# Measured values reported in patent publication US11524968B2, “Heterocyclic compound as a protein kinase inhibitor” (HK inno.N Corporation, priority 2017, dated 2022).
# Molecular target: JAK1 (Homo sapiens (Human), UniProt P23458)
# Test: Analysis of JAK1 activity inhibition ability (ADP-Glo Kinase Assay)
# Type: biochemical
# Conditions: JAK1 enzyme, ADP-Glo luminescence, ATP 250 uM, IRS-itide substrate, 30° C. 40 minutes; read-out: IC50
# Outline: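 ADP-Glo luminescence read-out of ADP production, with IC50 taken as the concentration halving JAK1 activity relative to control. Enzyme was incubated 40 min at 30 °C with compound, IRS-itide (40 ng/mL) and ATP (250 uM), concentrations as prepared in pH 7.5 Tris-HCl/MgCl2/BSA/DTT buffer.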
# Sequence of JAK1 (P23458 whole entry): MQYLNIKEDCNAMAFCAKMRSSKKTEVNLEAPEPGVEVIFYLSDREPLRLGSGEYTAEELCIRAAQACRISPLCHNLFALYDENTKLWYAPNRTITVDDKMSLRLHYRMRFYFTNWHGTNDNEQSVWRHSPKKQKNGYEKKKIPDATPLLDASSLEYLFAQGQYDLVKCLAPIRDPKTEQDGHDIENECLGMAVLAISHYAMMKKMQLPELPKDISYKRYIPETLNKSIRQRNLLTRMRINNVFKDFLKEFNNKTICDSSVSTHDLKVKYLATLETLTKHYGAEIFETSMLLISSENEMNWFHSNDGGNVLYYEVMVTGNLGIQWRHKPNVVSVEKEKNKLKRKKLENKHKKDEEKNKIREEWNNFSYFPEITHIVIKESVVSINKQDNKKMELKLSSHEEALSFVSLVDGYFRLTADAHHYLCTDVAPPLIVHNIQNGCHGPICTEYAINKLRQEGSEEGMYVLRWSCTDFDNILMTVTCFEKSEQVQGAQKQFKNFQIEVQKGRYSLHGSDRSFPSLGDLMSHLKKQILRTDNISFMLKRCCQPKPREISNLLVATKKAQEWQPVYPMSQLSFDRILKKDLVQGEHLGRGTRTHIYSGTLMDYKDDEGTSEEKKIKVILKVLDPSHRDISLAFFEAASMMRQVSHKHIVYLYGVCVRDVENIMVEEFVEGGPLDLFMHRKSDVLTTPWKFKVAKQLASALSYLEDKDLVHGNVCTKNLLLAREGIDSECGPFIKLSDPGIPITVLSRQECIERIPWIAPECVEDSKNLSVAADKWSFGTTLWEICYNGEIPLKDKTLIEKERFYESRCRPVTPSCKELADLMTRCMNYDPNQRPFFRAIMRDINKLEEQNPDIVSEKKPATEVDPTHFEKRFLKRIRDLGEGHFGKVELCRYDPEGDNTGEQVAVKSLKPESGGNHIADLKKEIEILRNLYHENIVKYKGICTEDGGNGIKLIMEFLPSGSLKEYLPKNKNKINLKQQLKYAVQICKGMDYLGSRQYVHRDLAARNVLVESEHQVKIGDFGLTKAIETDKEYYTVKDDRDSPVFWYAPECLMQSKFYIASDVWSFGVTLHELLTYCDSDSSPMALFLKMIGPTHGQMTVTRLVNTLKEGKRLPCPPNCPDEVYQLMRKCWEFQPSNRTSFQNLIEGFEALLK
row,SMILES,IC50 [nM]
1,"CC(C)(C)OC(=O)N1C2CCC1CN(c1nc(NC(=O)C3CC3)nc3[nH]ccc13)C2 [Example 695, tert-butyl 3-(2-(cyclopropanecarboxamido)-7H-pyrrolo[2,3-d]pyrimidin-4-yl)-3,8-diazabicyclo[3.2.1]octane-8-carboxylate]",20 to 200
2,"C[C@@H]1CN(C(=O)CC#N)CC=C1c1cc(N)nc2[nH]ccc12 [Example 705, (S)-3-(4-(6-amino-1H-pyrrolo[2,3-b]pyridin-4-yl)-3-methyl-3,6-dihydropyridin-1 (2H)-yl)-3-oxopropanenitrile]",> 200
3,"N#CC1CCN(C(=O)Cc2ccc(-c3cc(NC(=O)C4CC4)nc4[nH]ccc34)cc2)C1 (stereo not drawn) [Example 567, N-(4-(4-(2-(3-cyanopyrrolidin-1-yl)-2-oxoethyl)phenyl)-1H-pyrrolo[2,3-b]pyridin-6-yl)cyclopropanecarboxamide]",20 to 200
4,"O=C(Nc1cc(-c2ccc(NC3CCN(C(=O)c4cc(F)cc(F)c4)CC3)c(F)c2)c2cc[nH]c2n1)C1CC1 [Example 499, N-(4-(4-((1-(3,5-difluorobenzoyl)piperidin-4-yl)amino)-3-fluorophenyl)-1H-pyrrolo[2,3-b]pyridin-6-yl)cyclopropanecarboxamide]",> 200
5,"N#Cc1ccc(Cn2cc(-c3nc(NC(=O)C4CC4)nc4[nH]ccc34)cn2)cn1 [Example 482, N-(4-(1-((6-cyanopyridin-3-yl)methyl)-1H-pyrazol-4-yl)-7H-pyrrolo[2,3-d]pyrimidin-2-yl)cyclopropanecarboxamide]",> 200
6,"O=C(Nc1cc(-c2ccc(NS(=O)(=O)C3CC3)cc2C(F)(F)F)c2cc[nH]c2n1)C1CC1 [Example 118, N-(4-(4-(cyclopropanesulfonamido)-2-(trifluoromethyl)phenyl)-1H-pyrrolo[2,3-b]pyridin-6-yl)cyclopropanecarboxamide]",20 to 200
7,"O=C(Nc1nc(-c2ccc(NS(=O)(=O)CCCC(F)(F)F)cc2)c2nc[nH]c2n1)C1CC1 [Example 211, N-(6-(4-((4,4,4-trifluorobutyl)sulfonamido)phenyl)-9H-purin-2-yl)cyclopropanecarboxamide]",> 200
8,"N#CC1CN(C(=O)Cc2ccc(-c3cc(NC(=O)C4CC4)nc4[nH]ccc34)cc2)C1 [Example 568, N-(4-(4-(2-(3-cyanoazetidin-1-yl)-2-oxoethyl)phenyl)-1H-pyrrolo[2,3-b]pyridin-6-yl)cyclopropanecarboxamide]",20 to 200
9,"O=C(Nc1cc(-c2ccc(CC(=O)N3CCCC3)cc2)c2cc[nH]c2n1)C1CC1 [Example 547, N-(4-(4-(2-oxo-2-(pyrrolidin-1-yl)ethyl)phenyl)-1H-pyrrolo[2,3-b]pyridin-6-yl)cyclopropanecarboxamide]",20 to 200
10,"O=C(Nc1cc(C2=CC3CCC(C2)N3C(=O)CC(F)(F)F)c2cc[nH]c2n1)C1CC1 (stereo not drawn) [Example 261, N-(4-(8-(3,3,3-trifluoropropanoyl)-8-azabicyclo[3.2.1]oct-2-en-3-yl)-1H-pyrrolo[2,3-b]pyridin-6-yl)cyclopropanecarboxamide]",20 to 200
11,"Cc1ncc(C(=O)N2CC=C(c3cc(NC(=O)C4CC4)nc4[nH]ccc34)C(C)C2)s1 (stereo not drawn) [Example 306, N-(4-(3-methyl-1-(2-methylthiazole-5-carbonyl)-1,2,3,6-tetrahydropyridin-4-yl)-1H-pyrrolo[2,3-b]pyridin-6-yl)cyclopropanecarboxamide]",20 to 200
12,"N#CCC(=O)NC1CCN(c2cc(NC(=O)C3CC3)nc3[nH]ccc23)CC1 [Example 675, N-(4-(4-(2-cyanoacetamido)piperidin-1-yl)-1H-pyrrolo[2,3-b]pyridin-6-yl)cyclopropanecarboxamide]",> 200
13,"N#CCC(=O)N1C[C@@H]2C[C@H]1CN2c1cc(NC(=O)C2CC2)nc2[nH]ccc12 [Example 679, N-(4-((1S,4S)-5-(2-cyanoacetyl)-2,5-diazabicyclo[2.2.1]heptan-2-yl)-1H-pyrrolo[2,3-b]pyridin-6-yl)cyclopropanecarboxamide]",> 200
14,"CC1CN(C(=O)CCl)CC=C1c1cc(NC(=O)C2CC2)nc2[nH]ccc12 (stereo not drawn) [Example 348, N-(4-(1-(2-chloroacetyl)-3-methyl-1,2,3,6-tetrahydropyridin-4-yl)-1H-pyrrolo[2,3-b]pyridin-6-yl)cyclopropanecarboxamide]",20 to 200
15,"CCS(=O)(=O)Nc1ccc(-c2cc(NC(=O)C3CC3)nc3c2ccn3CC#N)cc1F [Example 62, N-(1-(cyanomethyl)-4-(4-(ethylsulfonamido)-3-fluorophenyl)-1H-pyrrolo[2,3-b]pyridin-6-yl)cyclopropanecarboxamide]",> 200
16,"CC1CN(C(=O)c2cc(F)cc(F)c2)CC=C1c1cc(NC(=O)C2CC2)nc2[nH]ccc12 (stereo not drawn) [Example 358, N-(4-(1-(3,5-difluorobenzoyl)-3-methyl-1,2,3,6-tetrahydropyridin-4-yl)-1H-pyrrolo[2,3-b]pyridin-6-yl)cyclopropanecarboxamide]",20 to 200

# Now from value to molecule:
row,IC50 [nM],SMILES
1,< 20,"O=C(Nc1cc(-c2ccc(NS(=O)(=O)N3CCOCC3)cc2)c2cc[nH]c2n1)C1CC1 [Example 214, N-(4-(4-(morpholine-4-sulfonamido)phenyl)-1H-pyrrolo[2,3-b]pyridin-6-yl)cyclopropanecarboxamide]"
2,20 to 200,"CCS(=O)(=O)Nc1ccc(-c2cc(NC(=O)C3CC3)[n+]([O-])c3[nH]ccc23)cc1F [Example 97, 6-(cyclopropanecarboxamido)-4-(4-(ethylsulfonamido)-3-fluorophenyl)-1H-pyrrolo[2,3-b]pyridine 7-oxide]"
3,20 to 200,"COc1ccc(C(=O)N2CC=C(c3cc(NC(=O)C4CC4)nc4[nH]ccc34)C(C)C2)cn1 (stereo not drawn) [Example 380, N-(4-(1-(6-methoxynicotinoyl)-3-methyl-1,2,3,6-tetrahydropyridin-4-yl)-1H-pyrrolo[2,3-b]pyridin-6-yl)cyclopropanecarboxamide]"
4,20 to 200,"O=C(Nc1cc(-c2ccc(NS(=O)(=O)c3ccc(Br)cc3F)cc2)c2cc[nH]c2n1)C1CC1 [Example 32, N-(4-(4-((4-bromo-2-fluorophenyl)sulfonamido)phenyl)-1H-pyrrolo[2,3-b]pyridin-6-yl)cyclopropanecarboxamide]"
5,< 20,"O=C(Nc1nc(-c2ccc(NS(=O)(=O)CCCF)cc2)c2cc[nH]c2n1)C1CC1 [Example 185, N-(4-(4-((3-fluoropropyl)sulfonamido)phenyl)-7H-pyrrolo[2,3-d]pyrimidin-2-yl)cyclopropanecarboxamide]"
6,20 to 200,"O=C(Nc1cc(C2=CCN(C(=O)CCl)CC2)c2cc[nH]c2n1)C1CC1 [Example 298, N-(4-(1-(2-chloroacetyl)-1,2,3,6-tetrahydropyridin-4-yl)-1H-pyrrolo[2,3-b]pyridin-6-yl)cyclopropanecarboxamide]"
7,20 to 200,"O=C(Nc1cc(-c2ccc(CC(=O)N3CCC3)cc2)c2cc[nH]c2n1)C1CC1 [Example 546, N-(4-(4-(2-(azetidin-1-yl)-2-oxoethyl)phenyl)-1H-pyrrolo[2,3-b]pyridin-6-yl)cyclopropanecarboxamide]"
8,20 to 200,"O=C(Nc1cc(-c2cn(Cc3ccccc3)nn2)c2cc[nH]c2n1)C1CC1 [Example 481, N-(4-(1-benzyl-1H-1,2,3-triazol-4-yl)-1H-pyrrolo[2,3-b]pyridin-6-yl)cyclopropanecarboxamide]"
9,20 to 200,"O=C(NCC(F)(F)F)Nc1ccc(-c2cc(NC(=O)C3CC3)nc3[nH]ccc23)cc1 [Example 435, N-(4-(4-(3-(2,2,2-trifluoroethyl)ureido)phenyl)-1H-pyrrolo[2,3-b]pyridin-6-yl)cyclopropanecarboxamide]"
10,20 to 200,"N#CCC(=O)N1CCC(c2cc(NC(=O)C3CC3)nc3[nH]ccc23)CC1 [Example 652, N-(4-(1-(2-cyanoacetyl)piperidin-4-yl)-1H-pyrrolo[2,3-b]pyridin-6-yl)cyclopropanecarboxamide]"
11,20 to 200,"N#CC1(CC(=O)N2CC=C(c3cc(NC(=O)C4CC4)nc4[nH]ccc34)CC2)CC1 [Example 268, N-(4-(1-(2-(1-cyanocyclopropyl)acetyl)-1,2,3,6-tetrahydropyridin-4-yl)-1H-pyrrolo[2,3-b]pyridin-6-yl)cyclopropanecarboxamide]"
12,< 20,"CCc1cc(NS(=O)(=O)CC2(C#N)CC2)ccc1-c1cc(NC(=O)C2CC2)nc2[nH]ccc12 [Example 109, N-(4-(4-(((1-cyanocyclopropyl)methyl)sulfonamido)-2-ethylphenyl)-1H-pyrrolo[2,3-b]pyridin-6-yl)cyclopropanecarboxamide]"
13,< 20,"N#Cc1ccc(S(=O)(=O)NC2CC=C(c3cc(NC(=O)C4CC4)nc4[nH]ccc34)CC2)cc1 (stereo not drawn) [Example 164, N-(4-(4-((4-cyanophenyl)sulfonamido)cyclohex-1-en-1-yl)-1H-pyrrolo[2,3-b]pyridin-6-yl)cyclopropanecarboxamide]"
14,< 20,"CC(C)C1CC(c2cc(NC(=O)C3CC3)nc3[nH]ccc23)=CCN1C(=O)CC#N (stereo not drawn) [Example 410, N-(4-(1-(2-cyanoacetyl)-2-isopropyl-1,2,3,6-tetrahydropyridin-4-yl)-1H-pyrrolo[2,3-b]pyridin-6-yl)cyclopropanecarboxamide]"
15,< 20,"CCS(=O)(=O)Nc1ccc(-c2cc(NC(=O)C3CC3C)nc3[nH]ccc23)cc1 (stereo not drawn) [Example 35, N-(4-(4-(ethylsulfonamido)phenyl)-1H-pyrrolo[2,3-b]pyridin-6-yl)-2-methylcyclopropane-1-carboxamide]"
16,< 20,"C[C@@H]1CN(C(=O)c2ccc([N+](=O)[O-])cc2)CC=C1c1cc(NC(=O)C2CC2)nc2[nH]ccc12 [Example 398, (S)—N-(4-(3-methyl-1-(4-nitrobenzoyl)-1,2,3,6-tetrahydropyridin-4-yl)-1H-pyrrolo[2,3-b]pyridin-6-yl)cyclopropanecarboxamide]"
17,< 20,"CC(c1ccc(-c2cc(NC(=O)C3CC3)nc3[nH]ccc23)cc1)N1CCS(=O)(=O)CC1 (stereo not drawn) [Example 589, N-(4-(4-(1-(1,1-dioxidothiomorpholino)ethyl)phenyl)-1H-pyrrolo[2,3-b]pyridin-6-yl)cyclopropanecarboxamide]"
